Read-outs that look alike come from different tables or passages of the source.
Legend:
α-glucosidase [1] = target: T1, α-glucosidase (Saccharomyces cerevisiae, UniProt P53341); experiment: biochemical; assay type: biochemical; details: for anti-α-glucosidase activity in words: in comparison to acarbose; for decrease of inhibitory activity relative to compound 9g: replacement or removal of 4-OH of 9g
T1 construct: purchased Sigma-Aldrich
Protocol: Yeast form of α-glucosidase (EC3.2.1.20, Saccharomyces cerevisiae, 20 U mg^−1) and p-nitrophenyl glucopyranoside as substrate were purchased from Sigma-Aldrich. […] IC50 values were calculated by the percentage of enzyme inhibition and non-linear regression curve using the logit method.

α-glucosidase [2] = target: T1, α-glucosidase; experiment: Enzyme kinetics study for α-glucosidase inhibition; assay type: biochemical
Protocol: The 20 μL of α-glucosidase solution (1 U mL^−1) was incubated with different concentrations of compound 9g (0, 2.25, 4.5, and 9 μM) for 15 min at 30 °C. After that, the enzymatic reaction was started by adding different concentrations of p-nitrophenyl glucopyranoside (substrate, 1–4 mM), and change in absorbance was measured for 20 min at 405 nm by spectrophotometer (Gen5, Power Wave xs2, BioTek, America).

α-glucosidase [3] = details: read-out: IC50 against α-glucosidase; Fig. 1, template A study; cited from earlier work
α-glucosidase [4] = experiment: Literature α-glucosidase inhibition of quinoline template A; assay type: biochemical; details: template A vs acarbose of that study
α-glucosidase [5] = target: α-glucosidase; design: method as in PMID 28110817; details: Fig. 1, template B study; read-out: IC50 against α-glucosidase; cited from earlier work
[6] = yeast α-glucosidase, p-nitrophenyl glucopyranoside substrate, pH 6.8, 37 °C, mean ± SD, read-out: IC50 against α-glucosidase

T1 sequence (P53341 whole entry): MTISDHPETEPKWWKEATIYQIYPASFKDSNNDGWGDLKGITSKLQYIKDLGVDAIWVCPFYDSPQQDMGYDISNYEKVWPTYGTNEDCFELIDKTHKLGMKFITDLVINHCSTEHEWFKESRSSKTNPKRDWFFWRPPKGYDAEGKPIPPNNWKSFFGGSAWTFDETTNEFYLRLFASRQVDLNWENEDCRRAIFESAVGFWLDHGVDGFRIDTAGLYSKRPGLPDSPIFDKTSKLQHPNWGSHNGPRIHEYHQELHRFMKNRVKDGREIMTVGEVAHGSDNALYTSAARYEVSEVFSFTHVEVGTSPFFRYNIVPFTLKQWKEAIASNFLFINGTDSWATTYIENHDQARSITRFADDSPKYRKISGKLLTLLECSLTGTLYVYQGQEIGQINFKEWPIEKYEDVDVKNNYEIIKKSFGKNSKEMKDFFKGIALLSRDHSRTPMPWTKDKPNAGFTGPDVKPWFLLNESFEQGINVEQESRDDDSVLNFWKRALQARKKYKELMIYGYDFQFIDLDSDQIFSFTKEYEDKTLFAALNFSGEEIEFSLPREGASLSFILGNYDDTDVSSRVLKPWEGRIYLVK

Compound	melting point [°C]	anti-α-glucosidase activity in words (α-glucosidase [1])	IC50 (α-glucosidase [1]; [6]) [µM]	also measured
O=C(CSc1nc2ccccc2cc1-c1nc2ccccc2c(=O)[nH]1)Nc1ccccc1 [9a, 2-{[3-(4-Oxo-3,4-dihydroquinazolin-2-yl)quinolin-2-yl]thio}-N-phenylacetamide]	200 to 202	potent members	25.8 ± 0.6	decrease of inhibitory activity relative to compound 9g (α-glucosidase [1]): 2.8 fold
Cc1ccc(NC(=O)CSc2nc3ccccc3cc2-c2nc3ccccc3c(=O)[nH]2)cc1 [9b, 2-{[3-(4-Oxo-3,4-dihydroquinazolin-2-yl)quinolin-2-yl]thio}-N-(p-tolyl)acetamide]	203 to 205		> 750	
Cc1cccc(NC(=O)CSc2nc3ccccc3cc2-c2nc3ccccc3c(=O)[nH]2)c1C [9c, N-(2,3-Dimethylphenyl)-2-{[3-(4-oxo-3,4-dihydroquinazolin-2-yl)quinolin-2-yl]thio}acetamide]	208 to 210		> 750	
Cc1cccc(C)c1NC(=O)CSc1nc2ccccc2cc1-c1nc2ccccc2c(=O)[nH]1 [9d, N-(2,6-Dimethylphenyl)-2-{[3-(4-oxo-3,4-dihydroquinazolin-2-yl)quinolin-2-yl]thio}acetamide]	220 to 222		> 750	
CCc1ccc(NC(=O)CSc2nc3ccccc3cc2-c2nc3ccccc3c(=O)[nH]2)cc1 [9e, N-(4-Ethylphenyl)-2-{[3-(4-oxo-3,4-dihydroquinazolin-2-yl)quinolin-2-yl]thio}acetamide]	208 to 210		> 750	
COc1ccc(NC(=O)CSc2nc3ccccc3cc2-c2nc3ccccc3c(=O)[nH]2)cc1 [9f, N-(4-Methoxyphenyl)-2-{[3-(4-oxo-3,4-dihydroquinazolin-2-yl)quinolin-2-yl]thio}acetamide]	203 to 205	potent members		IC50 (α-glucosidase [1]): 37.7 ± 2.9 µM; decrease of inhibitory activity relative to compound 9g (α-glucosidase [1]): 4.1 fold
O=C(CSc1nc2ccccc2cc1-c1nc2ccccc2c(=O)[nH]1)Nc1ccc(O)cc1 [9g, N-(4-Hydroxyphenyl)-2-{[3-(4-oxo-3,4-dihydroquinazolin-2-yl)quinolin-2-yl]thio}acetamide]	210 to 212	potent members	9 ± 0.3	fold more potent than the most potent compound among template compounds C (α-glucosidase [1]; comparison with literature compounds C): 8.8 fold; type of inhibition (α-glucosidase [2]; Lineweaver–Burk plots): competitive; Ki (α-glucosidase [2]; secondary re-plot of Lineweaver–Burk plots, 0, 2.25, 4.5, 9.0 μM inhibitor): 7 µM
O=C(CSc1nc2ccccc2cc1-c1nc2ccccc2c(=O)[nH]1)Nc1ccccc1F [9h, N-(2-Fluorophenyl)-2-{[3-(4-oxo-3,4-dihydroquinazolin-2-yl)quinolin-2-yl]thio}acetamide]	209 to 211	eradicated inhibitory activity	> 750	
O=C(CSc1nc2ccccc2cc1-c1nc2ccccc2c(=O)[nH]1)Nc1ccc(F)cc1 [9i, N-(4-Fluorophenyl)-2-{[3-(4-oxo-3,4-dihydroquinazolin-2-yl)quinolin-2-yl]thio}acetamide]	206 to 208	eradicated inhibitory activity	> 750	
O=C(CSc1nc2ccccc2cc1-c1nc2ccccc2c(=O)[nH]1)Nc1cccc(Cl)c1 [9j, N-(3-Chlorophenyl)-2-{[3-(4-oxo-3,4-dihydroquinazolin-2-yl)quinolin-2-yl]thio}acetamide]	212 to 214	potent members	53.4 ± 2.3	
O=C(CSc1nc2ccccc2cc1-c1nc2ccccc2c(=O)[nH]1)Nc1ccc(Cl)cc1 [9k, N-(4-Chlorophenyl)-2-{[3-(4-oxo-3,4-dihydroquinazolin-2-yl)quinolin-2-yl]thio}acetamide]	209 to 211	potent members	40.1 ± 1.2	
O=C(CSc1nc2ccccc2cc1-c1nc2ccccc2c(=O)[nH]1)Nc1ccc(Br)cc1 [9l, N-(4-Bromophenyl)-2-{[3-(4-oxo-3,4-dihydroquinazolin-2-yl)quinolin-2-yl]thio}acetamide]	208 to 210	eradicated inhibitory activity	> 750	
O=C(CSc1nc2ccccc2cc1-c1nc2ccccc2c(=O)[nH]1)Nc1ccc([N+](=O)[O-])cc1 [9m, N-(4-Nitrophenyl)-2-{[3-(4-oxo-3,4-dihydroquinazolin-2-yl)quinolin-2-yl]thio}acetamide]	217 to 219	potent members	52 ± 1.4	
O=C(CSc1nc2ccccc2cc1-c1nc2ccccc2c(=O)[nH]1)NCc1ccccc1 [9n, N-Benzyl-2-{[3-(4-oxo-3,4-dihydroquinazolin-2-yl)quinolin-2-yl]thio}acetamide]	201 to 203		> 750	
Cc1ccc(CNC(=O)CSc2nc3ccccc3cc2-c2nc3ccccc3c(=O)[nH]2)cc1 [9o, N-(4-Methylbenzyl)-2-{[3-(4-oxo-3,4-dihydroquinazolin-2-yl)quinolin-2-yl]thio}acetamide]	202 to 204		> 750	
O=C(CSc1nc2ccccc2cc1-c1nc2ccccc2c(=O)[nH]1)NCc1ccc(F)cc1 [9p, N-(4-Fluorobenzyl)-2-{[3-(4-oxo-3,4-dihydroquinazolin-2-yl)quinolin-2-yl]thio}acetamide]	205 to 207		> 750	
O=C(O)c1ccc2ccccc2n1 [Compound A]				IC50 (α-glucosidase [3]): 9.1 ± 2.3 µM; fold more potent than acarbose (α-glucosidase [4]): 7.3 fold
O=c1[nH]c(-c2ccc(Cl)cc2)nc2ccccc12 [Compound B]				IC50 (α-glucosidase [5]): 12.5 ± 0.1 µM

From PMC10291282, “Synthesis, ADMT prediction, and in vitro and in silico α-glucosidase inhibition evaluations of new quinoline–quinazolinone–thioacetamides” (RSC Advances, 2023)
